Data reported in patent publication US8389544B2, “Isoquinolone compounds as subtype-selective agonists for melatonin receptors MT1 and MT2” (The Hong Kong University of Science and Technology, priority 2007, dated 2013).
Read-outs that look alike come from different tables or passages of the source.

Tests used:
MT2 receptor = target: T1, MT2 receptor (Homo sapiens, UniProt P49286); test: FLIPR Ca2+ mobilization assay, MT2; assay type: cell-based; parameters: expressed in transfected cells; host or cells: COS-7 (monkey kidney fibroblast); settings: for Emax: read-out: % Response of 2-IMT; for agonist character / receptor subtype selectivity in words: FLIPR results, MT1 versus MT2; for % Response of 2-IMT: MT2, relative to 2-IMT response
T1 sequence (P49286 1-362): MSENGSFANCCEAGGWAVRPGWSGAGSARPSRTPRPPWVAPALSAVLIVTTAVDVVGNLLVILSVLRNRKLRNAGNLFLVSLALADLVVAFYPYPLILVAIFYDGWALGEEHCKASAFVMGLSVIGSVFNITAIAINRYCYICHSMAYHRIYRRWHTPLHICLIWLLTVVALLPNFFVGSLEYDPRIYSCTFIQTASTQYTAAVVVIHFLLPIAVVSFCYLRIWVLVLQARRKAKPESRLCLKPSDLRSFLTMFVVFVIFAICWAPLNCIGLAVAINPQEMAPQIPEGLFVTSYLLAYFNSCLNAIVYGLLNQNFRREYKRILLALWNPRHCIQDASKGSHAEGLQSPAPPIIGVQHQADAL
Procedure: (§1) 1. FLIPR Ca^2+ Mobilization Assay
(§2) This assay indicates the ability of the novel compounds to activate MT1 and MT2 receptors by measuring downstream events of the activated receptor, in this case intracellular calcium mobilization.
(§3) 1. Intracellular Ca^2+ Mobilization Assay Using Fluorometric Imaging Plate Reader (FLIPR®)
(§4) An intracellular calcium mobilization assay was performed to screen the isoquinolone compounds against the two melatonin receptor subtypes, MT1 and MT2 on the fluorometric imaging plate reader (FLIPR®). In order to facilitate the screening process in a high-throughput manner, chimeric G proteins with the ability to couple to a range of GPCR as well as activate intracellular Ca^2+ were employed. The melatonin receptor subtype (either MT1 or MT2) was co-expressed with the G-protein chimeras in COS-7 (monkey kidney fibroblast) cells. During the assay, cells were exposed to the novel isoquinolone compounds and the corresponding change in fluorescence was measured. Both single point and dose-dependant assays were performed for each isoquinolone compound and based on the latter a dose response curve was generated and the corresponding EC50 for each receptor subtype determined.
(§5) Specifically, COS-7 cells were seeded at a density of 20,000 cells/well into 96-well plates designed for FLIPR assays, using Opti-MEM with 10% FCS at a volume of 100 μl/well. Transfection was carried out using Lipofectamine 2000® reagent. In each well, 0.2 μg of the GPCR and G protein cDNA were diluted with 25 μl of Opti-MEM and 0.2 μl of Lipofectamine 2000® was diluted with another 25 μl of Opti-MEM. They were added to appropriate wells after the two components were mixed for 20 min.
(§6) After 48 hours of incubation post-transfection, 50 μl of the transfection medium was removed from each well followed by the labelling of transfected cells with 100 μl of 2 μM Fluo-4 in calcium containing HBSS (Hank's balanced salt solution) with 20 mM HEPES (N-[2-hydroxyethyl]piperazine—N′-[2-ethanesulfonic acid]; pH 7.5) and 2.5 mM probenecid (anion exchanger inhibitor, freshly prepared) for 1 hour at 37° C. 70 μl of 3× drugs (isoquinolinone compounds encompassing the invention) were prepared and aliquoted into the corresponding wells in the V-well drug plate. Changes in fluorescence were detected in the FLIPR 96 with an excitation wavelength of 488 nm. The background fluorescence was adjusted to the range of 8,000 to 12,000 units by altering the laser power and exposure time (typically 0.4 W and 0.4 sec, respectively) for the FLIPR setup. 50 μl of each agonist solution was added to the corresponding wells and the fluorescent emission (between 510 and 560 nm) was monitored for 3 min. Results were expressed as change in fluorescent intensity units (FIU). Concentration-response curves were generated by determining the maximal change in FIU of each data set. Numerical analysis of the statistics and EC50 (median effective concentration) values were performed on GraphPad Prism version 3.03.
(§7) Then the intracellular Ca^2+ mobilization assays using the Fluorometric Imaging Plate Reader (FLIPR®) were performed as described above.

MT1 receptor = MT1 receptor (Homo sapiens, UniProt P48039); test: FLIPR Ca2+ mobilization assay, MT1; assay type: cell-based; parameters: expressed in transfected cells; host or cells: COS-7 (monkey kidney fibroblast); settings: for % Response of 2-IMT: MT1, relative to 2-IMT response
MT1 receptor, sequence (P48039 whole entry): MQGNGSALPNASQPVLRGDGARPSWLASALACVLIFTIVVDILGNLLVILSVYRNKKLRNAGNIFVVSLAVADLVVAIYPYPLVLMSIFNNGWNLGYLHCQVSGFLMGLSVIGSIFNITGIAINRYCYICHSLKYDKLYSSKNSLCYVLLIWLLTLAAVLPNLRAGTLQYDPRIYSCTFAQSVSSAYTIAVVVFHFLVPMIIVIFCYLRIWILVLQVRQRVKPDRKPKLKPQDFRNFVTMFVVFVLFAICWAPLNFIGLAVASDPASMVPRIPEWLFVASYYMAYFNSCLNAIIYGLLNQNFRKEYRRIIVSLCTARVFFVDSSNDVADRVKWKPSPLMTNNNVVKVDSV
Procedure: as §1, §2, §3, §4, §5, §6, §7

[1] = Table 1, MT2 in COS-7 cells with chimeric G protein, log value, negative, NSR = no significant response
[2] = Table 1, MT1 in COS-7 cells with chimeric G protein, log value, negative, NSR = no significant response, read-out: Log(EC50) ± SEM (converted)
[3] = Table 1, MT2 in COS-7 cells with chimeric G protein, log value, negative, NSR = no significant response, read-out: Log(EC50) ± SEM (converted)
[4] = Table 1, MT1 in COS-7 cells with chimeric G protein, log value, negative, NSR = no significant response

Q: `COc1cc2c(=O)n(C)ccc2cc1O` [IS001, 6-Hydroxyl-7-methoxyl-2-methyl-1(2H)-isoquinolone] was tested. Which “Log(EC50) ± SEM” value (MT2 receptor; [1]) did it give?
A: NSR

Q: What about the “% Response of 2-IMT” value (MT1 receptor; Table 1) of the same compound?
A: 71.9%

Q: And the EC50 (MT1 receptor; [2])?
A: 1.58 µM

Q: `COc1cc2ccn(C)c(=O)c2cc1O` [IS002, 7-hydroxyl-6-methoxyl-2-methyl-1(2H)-isoquinolone] was tested. Which EC50 (MT2 receptor; [3]) did it give?
A: 0.871 µM

Q: And the Emax (MT2 receptor)?
A: 47%

Q: What about the “% Response of 2-IMT” value (MT1 receptor; Table 1) of the same compound?
A: 31.7%

Q: What about the EC50 (MT1 receptor; [2]) of the same compound?
A: 1.74 µM

Q: For `COc1cc2ccn(C)c(=O)c2cc1OCc1ccccc1` [IS003], which “Log(EC50) ± SEM” value (MT2 receptor; [1]) is on record?
A: NSR

Q: And the “Log(EC50) ± SEM” value (MT1 receptor; [4])?
A: NSR

Q: `COc1ccc2c(=O)n(C)ccc2c1OCc1ccccc1` [IS005] was tested. Which “activity / efficacy at MT2 compared to 2-IMT” value (MT2 receptor) did it give?
A: 63%

Q: And the “agonist character / receptor subtype selectivity in words” value (MT2 receptor)?
A: partial agonist

Q: And the Emax (MT2 receptor)?
A: 62.9%

Q: What about the EC50 (MT2 receptor; read-out: EC50 MT2) of the same compound?
A: 0.0485 µM

Q: And the “% Response of 2-IMT” value (MT1 receptor; Table 1)?
A: 30.5%

Q: What about the “activity / activation at MT1 compared to 2-IMT” value (MT1 receptor; running text b158, b160) of the same compound?
A: 31%

Q: And the EC50 (MT1 receptor; running text b158, read-out: EC50 MT1)?
A: 0.00581 µM

Q: `C=CCOc1c(OC)ccc2c(=O)n(C)ccc12` [IS007] was tested. Which EC50 (MT2 receptor; [3]) did it give?
A: 0.00347 µM

Q: And the Emax (MT2 receptor)?
A: 49.1%

Q: And the EC50 (MT2 receptor; read-out: EC50 MT2)?
A: 0.00351 µM

Q: And the “Log(EC50) ± SEM” value (MT1 receptor; [4])?
A: NSR

Q: Which results are given for `COc1ccc2c(=O)n(C)ccc2c1OCCCc1ccccc1` [IS008]?
A: agonist character / receptor subtype selectivity in words (MT2 receptor): activated MT2 only; EC50 (MT2 receptor; [3]): 0.562 µM; Emax (MT2 receptor): 57.6%; Log(EC50) ± SEM (MT1 receptor; [4]): NSR

Q: How did the “agonist character / receptor subtype selectivity in words” value (MT2 receptor) turn out when `COc1ccc2c(=O)n(C)ccc2c1OCc1ccc(Br)cc1` [IS009] was run?
A: activated MT2 only

Q: And the EC50 (MT2 receptor; [3])?
A: 0.123 µM

Q: What about the Emax (MT2 receptor) of the same compound?
A: 37.4%

Q: What about the “Log(EC50) ± SEM” value (MT1 receptor; [4]) of the same compound?
A: NSR

Q: With `COc1ccc(C(=O)COc2c(OC)ccc3c(=O)n(C)ccc23)cc1` [IS010] as the compound, how does the “% Response of 2-IMT” value (MT2 receptor; Table 1) read?
A: 53.0%

Q: And the “Log(EC50) ± SEM” value (MT2 receptor; [1])?
A: −6.35 ± 0.06

Q: What about the “Log(EC50) ± SEM” value (MT1 receptor; [4]) of the same compound?
A: NSR

Q: Which results are given for `COc1cc2ccn(C)c(=O)c2cc1OCCCc1ccccc1` [IS013]?
A: % Response of 2-IMT (MT2 receptor; Table 1): 101.9%; Log(EC50) ± SEM (MT2 receptor; [1]): −6.00 ± 0.01; % Response of 2-IMT (MT1 receptor; Table 1): 75.0%; Log(EC50) ± SEM (MT1 receptor; [4]): −5.22 ± 1.28

Q: Which results are given for `COc1cc2c(=O)n(C)ccc2cc1OCc1ccccc1` [IS016]?
A: EC50 (MT2 receptor; [3]): 2.75 µM; Emax (MT2 receptor): 145%; % Response of 2-IMT (MT1 receptor; Table 1): 65.3%; EC50 (MT1 receptor; [2]): 1.35 µM

Q: `COc1cc2c(=O)n(C)ccc2cc1OCCCc1ccccc1` [IS017] was tested. Which EC50 (MT2 receptor; [3]) did it give?
A: 0.107 µM

Q: What about the Emax (MT2 receptor) of the same compound?
A: 107%

Q: And the “Log(EC50) ± SEM” value (MT1 receptor; [4])?
A: NSR

Q: What does the source list for `COc1ccc(O)c2c(=O)n(C)ccc12` [IS030]?
A: % Response of 2-IMT (MT2 receptor; Table 1): 39.4%; Log(EC50) ± SEM (MT2 receptor; [1]): −5.52; % Response of 2-IMT (MT1 receptor; Table 1): 67.5%; Log(EC50) ± SEM (MT1 receptor; [4]): −5.98 ± 0.04

Q: For `Cn1ccc2ccc(O)c(O)c2c1=O` [IS037], which EC50 (MT2 receptor; [3]) is on record?
A: 0.525 µM

Q: What about the Emax (MT2 receptor) of the same compound?
A: 42.1%

Q: What about the “Log(EC50) ± SEM” value (MT1 receptor; [4]) of the same compound?
A: NSR

Q: How did the EC50 (MT2 receptor; [3]) turn out when `COc1cc2ccn(C)c(=O)c2cc1OCCCCCl` [IS098] was run?
A: 0.00617 µM

Q: And the Emax (MT2 receptor)?
A: 44.7%

Q: What about the “Log(EC50) ± SEM” value (MT1 receptor; [4]) of the same compound?
A: NSR

Q: Which EC50 (MT2 receptor; [3]) does the source give for `COc1cc2ccn(C)c(=O)c2cc1OCCCI` [IS101, 7-(3-iodopropyloxyl)-6-methoxyl-2-methyl-1(2H)-isoquinolone] here?
A: 0.603 µM

Q: What about the Emax (MT2 receptor) of the same compound?
A: 65.8%

Q: And the “Log(EC50) ± SEM” value (MT1 receptor; [4])?
A: NSR

Q: With `COc1ccc2c(=O)n(C)ccc2c1OCc1ccc(C(C)(C)C)cc1` [IS532] as the compound, how does the “% Response of 2-IMT” value (MT2 receptor; Table 1) read?
A: 22.3%

Q: What about the “Log(EC50) ± SEM” value (MT2 receptor; [1]) of the same compound?
A: −5.57 ± 0.75

Q: And the “Log(EC50) ± SEM” value (MT1 receptor; [4])?
A: NSR
